Consider 3 compounds from US20250361230A1, “LATS Inhibitors and Uses Thereof” (The USA, as Represented by the Secretary, Dept. of Heath …, priority 2022, published 2025).

In one assay the target is T1, LATS1 (Homo sapiens, UniProt O95835).
T1 sequence (O95835 1-1130): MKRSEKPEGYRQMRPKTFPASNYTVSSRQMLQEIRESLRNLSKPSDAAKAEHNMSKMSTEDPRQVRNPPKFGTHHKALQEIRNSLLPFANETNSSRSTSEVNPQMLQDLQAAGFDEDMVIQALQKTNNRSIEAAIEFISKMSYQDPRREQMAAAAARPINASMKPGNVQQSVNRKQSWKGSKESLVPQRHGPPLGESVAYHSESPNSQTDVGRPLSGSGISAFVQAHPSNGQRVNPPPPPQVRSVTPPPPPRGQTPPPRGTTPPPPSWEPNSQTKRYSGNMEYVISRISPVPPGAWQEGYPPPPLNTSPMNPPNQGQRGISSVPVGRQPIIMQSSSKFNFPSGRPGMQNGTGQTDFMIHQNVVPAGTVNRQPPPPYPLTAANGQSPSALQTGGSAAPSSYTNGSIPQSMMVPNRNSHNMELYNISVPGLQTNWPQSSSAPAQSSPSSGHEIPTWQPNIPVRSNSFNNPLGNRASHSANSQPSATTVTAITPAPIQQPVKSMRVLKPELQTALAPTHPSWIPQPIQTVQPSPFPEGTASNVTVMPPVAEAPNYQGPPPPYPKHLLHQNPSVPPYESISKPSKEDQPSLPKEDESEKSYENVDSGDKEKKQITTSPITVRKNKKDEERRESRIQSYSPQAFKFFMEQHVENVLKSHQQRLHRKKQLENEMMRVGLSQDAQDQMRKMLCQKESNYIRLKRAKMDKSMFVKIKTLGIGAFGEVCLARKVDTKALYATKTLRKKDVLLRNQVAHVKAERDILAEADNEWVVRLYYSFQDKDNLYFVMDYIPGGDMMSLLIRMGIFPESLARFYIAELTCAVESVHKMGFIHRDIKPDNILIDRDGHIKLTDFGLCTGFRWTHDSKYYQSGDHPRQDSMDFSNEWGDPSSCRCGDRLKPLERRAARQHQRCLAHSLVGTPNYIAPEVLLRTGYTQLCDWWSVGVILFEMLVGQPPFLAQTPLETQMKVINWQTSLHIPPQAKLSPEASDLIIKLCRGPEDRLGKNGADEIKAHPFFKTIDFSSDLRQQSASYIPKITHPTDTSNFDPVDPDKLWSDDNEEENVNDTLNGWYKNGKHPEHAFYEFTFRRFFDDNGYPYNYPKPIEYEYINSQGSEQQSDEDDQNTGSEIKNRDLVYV
Description: RBC HotSpot kinase assay (33P-ATP, P81 filter-binding), LATS1. The class given is biochemical. The conditions noted are these: biochemical kinase inhibition; read-out: LATS1 IC50. The method in brief: (§1)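 Hepes pH 7.5/MgCl2/EGTA/Brij35/BSA/Na3VO4/DTT buffer, cofactors per kinase; cpd acoustically dispensed, 20 min preinc RT; start w/ 33P-ATP, 2 h RT; P81 filter readout; 10-pt singlet IC50.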

The target of the next assay is AKT (Homo sapiens, UniProt P31749). The experiment in a line: RBC HotSpot kinase assay (33P-ATP, P81 filter-binding), AKT. The class given is biochemical. The conditions noted are these: biochemical kinase inhibition; read-out: AKT IC50. The method in brief: as §1
AKT, sequence (P31749 whole entry): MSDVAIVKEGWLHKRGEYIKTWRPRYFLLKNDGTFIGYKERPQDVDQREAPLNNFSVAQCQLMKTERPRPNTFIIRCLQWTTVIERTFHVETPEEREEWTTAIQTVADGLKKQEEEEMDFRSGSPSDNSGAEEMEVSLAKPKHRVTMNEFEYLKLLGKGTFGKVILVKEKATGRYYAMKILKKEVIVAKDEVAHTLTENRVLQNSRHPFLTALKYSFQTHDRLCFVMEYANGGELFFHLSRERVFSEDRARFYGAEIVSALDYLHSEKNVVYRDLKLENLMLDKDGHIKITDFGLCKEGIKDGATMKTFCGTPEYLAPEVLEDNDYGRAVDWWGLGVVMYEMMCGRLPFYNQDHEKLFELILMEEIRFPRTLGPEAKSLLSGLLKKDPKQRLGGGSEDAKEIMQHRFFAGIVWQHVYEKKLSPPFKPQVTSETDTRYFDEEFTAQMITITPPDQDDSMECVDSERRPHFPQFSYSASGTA

Structures are written as SMILES.

Consider `Cc1cc(-c2ccnc3[nH]cc(C#N)c23)cc(F)c1[C@@]1(O)[C@H](C)CN(C(=O)C(N)C(F)(F)F)C[C@@H]1C` (stereo partly drawn) [Compound 2017, 4-(4-((3S,4s,5R)-1-(2-amino-3,3,3-trifluoropropanoyl)-4-hydroxy-3,5-dimethylpiperidin-4-yl)-3-fluoro-5-methylphenyl)-1H-pyrrolo[2,3-b]pyridine-3-carbonitrile], for which the IC50 (as a rule, the midpoint of a concentration-inhibition curve) at LATS1 was 8.2 nM; on AKT, 2050 nM.
For `Cc1cc(-c2ccnc3[nH]cc(C#N)c23)cc(F)c1[C@@]1(O)[C@H](C)CN(C(=O)[C@H](CO)N(C)C)C[C@@H]1C` [Compound 2023, 4-(4-((3S,4R,5R)-1-(dimethyl-L-seryl)-4-hydroxy-3,5-dimethylpiperidin-4-yl)-3-fluoro-5-methylphenyl)-1H-pyrrolo[2,3-b]pyridine-3-carbonitrile] the same measures were 4.4 nM and 388 nM.
For `Cc1cc(-c2ccnc3[nH]cc(C#N)c23)cc(F)c1[C@@]1(O)[C@H](C)CNC[C@@H]1C` [Compound 2024, 4-(3-fluoro-4-((3S,4s,5R)-4-hydroxy-3,5-dimethylpiperidin-4-yl)-5-methylphenyl)-1H-pyrrolo[2,3-b]pyridine-3-carbonitrile] the same measures were 6.6 nM and 334 nM.
